Converted amounts (≈) assume the structure as drawn. Like-named read-outs stand apart in the source and are kept apart here.
Tests used:
[1] = HTChem stab assay (chemical stability in buffer pH2, pH4 and pH7 vs DMSO reference); format: physicochemical; settings: 72 h, 50 µM
Description: HTChem stab assay was used to assess the chemical stability of the compounds. 72 h stirring at rt in a buffer pH2, pH4 and pH7 vs a reference DMSO solution. HTChem stab assay is based on the handbook of Pharmaceutical Stress Testing, Predicting Drug Degradation, second edition, authors Baertschi, Alsante, Reed ISBN 978-143980179-6.
Compounds were plated (1 μl 10 mM DMSO stock in 96 well plate (DMSO control+3 pH conditions), one plate per condition).
200 μL of respectively DMSO, Buffer/DMSO mix pH2, Buffer/DMSO mix pH4 and Buffer/DMSO mix pH7 was added.
After 72 h shaking (300 rpm) at room temperature the samples were analysed by LC/UV/MS. Chromatograms of samples (stability conditions) were compared with the chromatograms of control sample (DMSO). Extra peaks were flagged and identified by mass spectrometry. Sample purity (reference included) were reported.
• pH3 buffer: For 11; weigh 4.14 g NaH2PO4·H2O, add 600 ml H2O, add H3PO4 to pH3, add H2O to 1000 ml. Filter over 0.2 μm and store at 4° C. Expires after 30 days. • pH6 buffer: For 1 l; weigh 4.14 g NaH2PO4·H2O, add 600 ml H2O, add 1N NaOH to pH6, add H2O to 1000 ml. Filter over […] and store at 4° C. Expires after 30 days.
• pH2 Buffer/DMSO (StabSolvent): mix 2 parts of HCl 0.1N with 1 part of DMSO • pH4 Buffer/DMSO (StabSolvent): mix 2 parts of buffer pH3 with 1 part of DMSO • pH7 Buffer/DMSO (StabSolvent): mix 2 parts of buffer pH6 with 1 part of DMSO measure pH prior to use.
Instrument: Acquity UPLC; Column: Acquity HSS T3, 50 mm length×2.1 mm i.d., 1.8 μm particle size. Detectors: PDA (250-350 nm) and SQD2 (90-1500m/z). Mobile phase A: 0.1% Formic acid in water; Mobile phase B: 0.1% Formic acid in Acetonitrile.
Injection volume: 5 μL, flow rate 0.6 mL/min.
Data processing including peak integration and identification was done with Waters OpenLynx software.

[2] = tested on: Mycobacterium tuberculosis strain H37Rv; test: Test 2: MIC determination against M. tuberculosis, resazurin fluorescence; format: cell-based; settings: Test 2, M. tuberculosis H37Rv; for MIC90: read-out: Bacterial activity MIC90; for IC50: read-out: Bacterial activity pMIC50 (converted)
[3] = tested on: Salmonella typhimurium Ames II Mixed Strains (TA7001-TA7006) and TA98; test: Genotoxicity assay (AmesIIb mutagenicity test); format: cell-based; note: key: an AmesIIb score of 1 shows no genotoxicity signals
Source text: The aim is to evaluate compounds (and/or their metabolites) for their ability to induce reverse mutations in a gene of histidine-requiring Salmonella typhimurium strains to produce histidine-independent strains of these bacteria, in the absence and in the presence of a mammalian metabolic activation system.
Point mutations were made in the histidine (His) operon in Salmonella typhimurium, rendering the bacteria incapable of producing histidine. These single base substitutions are positioned at strategic points within the His gene, resulting in his-organisms that cannot grow unless histidine is supplied. When a mutagenic event occurs, base substitutions within the His gene then cause the reversion of the his-Ames II™ strains to His.
A chemical's mutagenic potential is assessed by exposing these his-organisms to varying concentrations of chemical and selecting for the reversion event. Medium lacking histidine is used for this selection which allows only those cells that have undergone the his- to His reversion to survive and grow.
The assay may be performed using a kit and instructions from Xenometric. The two strains provided in the Xenometric kit are the Ames II™ Mixed Strains and TA98. The Ames II™ Mixed Strains contains an equimolar mixture of the Ames II™ TA7001-TA7006 strains. Individually, these strains are designed to revert by only one specific base-pair substitution out of six possible changes. Thus, when mixed, all six base substitution mutations can be represented in one culture. This kit also contains TA98 for the detection of frameshift mutations.

[4] = Metabolic stability in liver microsomes (intrinsic clearance); format: in vitro ADME; settings: for half-life at 1 µM / microsomal CLint at 1 µM: microsomes; for Metabolic Stability (liver microsome intrinsic clearance) Clearance (mouse, μl/min./mg protein) / Metabolic Stability Half life (mouse, min.): mouse liver microsomes
Description: The test compound was incubated under the generic condition (0.5 mg/ml microsomal protein, 1 mM NADPH, 1 mM MgCl2, and 0.1 M phosphate buffer, pH 7.4, 37° C.) at a defined substrate concentration (typically 1 μM) in liver microsomes of selected species across a time course (typically 0, 5, 10, 20, 40 and 60 minutes) at Cyprotex (Cheshire, UK). The liver microsomes, buffer and test compound will be pre-incubated for 5 minutes. The addition of the co-factor NADPH will initiate the reaction and the reaction was terminated by addition of acetonitrile. The samples were centrifuged prior to analysis by LC-MS/MS analysis. The relative amount of parent compound remaining in the active incubations vs. the control incubations (t=0 mins) for each compound was measured by peak area comparison. The in vitro metabolic half-life (t1/2) was calculated using the slope of the log-linear regression from the percentage parent compound remaining versus time relationship (κ), The in vitro intrinsic clearance (Cl^int) (μl/min/mg microsomal protein) was calculated using the in vitro metabolic half-life, incubation volume and the weight of microsomal protein in the incubation.

[5] = Mycobacterium tuberculosis, H37RV
[6] = mouse, pH 7.4, Metabolic Stability Half life (mouse, min.)
[7] = mouse, pH 7.4, mouse liver microsomes, read-out: Metabolic Stability (liver microsome intrinsic clearance) Clearance (mouse, μl/min./mg protein)
[8] = human, pH 7.4, Metabolic Stability Half life (human, min.)
[9] = human, pH 7.4, human liver microsomes, read-out: Metabolic Stability (liver microsome intrinsic clearance) Clearance (human, μl/min./mg protein)

Row | SMILES | MIC90 [2, 5] [µM] | IC50 [2, 5] [pM] | GeneTox AmesIIb Score ([3]; Salmonella typhimurium) | half-life at 1 µM [4, 6] [h] | microsomal CLint at 1 µM [4, 7] [µL/min/mg] | also measured
1 | Cc1cnc2nc(C3CC3)c(C(=O)NCc3ccc(-c4nc5n(n4)CCC(C(F)(F)F)C5)cc3)n2c1 (stereo not drawn) [Compound 8ab] | 0.018 (≈ 0.00892 µg/mL) | 7110 | 1 | – | – | Chemical stability data, Vehicle DMSO [1]: 100%; Chemical stability data, Buffer pH2 ([1]; pH 2): 100%; Chemical stability data, Buffer pH4 ([1]; pH 4): 100%; Chemical stability data, Buffer pH7 ([1]; pH 7): 100%
2 | CCc1nc2ncc(C)cn2c1C(=O)NCc1ccc(-c2nc3n(n2)CCC(C(F)(F)F)C3)cn1 (stereo not drawn) [Compound 39] | 0.16 (≈ 0.0775 µg/mL) | 49000 | 1 | > 3 | < 7.7 | –
3 | CCc1nc2ccc(F)cn2c1C(=O)NCc1ccc(-c2nc3n(n2)CC[C@H](C(F)(F)F)C3)cc1 [Compound 50] | 0.11 (≈ 0.0535 µg/mL) | 28200 | 1 | 1.97 | 11.7 | –
4 | [2H]C([2H])([2H])c1cnc2nc(CC)c(C(=O)NCc3ccc(-c4nc5n(n4)CC[C@H](C(F)(F)F)C5)cc3)n2c1 [Compound 51] | 0.008 (≈ 0.00389 µg/mL) | 3160 | 1 | > 3 | < 7.7 | –
5 | CCc1cnc2nc(CC)c(C(=O)NCc3ccc(-c4nc5n(n4)CC[C@@H](C(F)(F)F)C5)cc3)n2c1 [Compound 59] | 0.061 (≈ 0.0303 µg/mL) | 17800 | 1 | 0.39 | 59.4 | half-life at 1 µM [4, 8]: 0.0667 h; microsomal CLint at 1 µM [4, 9]: 347 µL/min/mg
6 | CCc1cnc2nc(CC)c(C(=O)NCc3ccc(-c4nc5n(n4)CC[C@H](C(F)(F)F)C5)cc3)n2c1 [Compound 62] | 0.033 (≈ 0.0164 µg/mL) | 11000 | 1 | 0.4 | 57.8 | half-life at 1 µM [4, 8]: 0.0783 h; microsomal CLint at 1 µM [4, 9]: 294 µL/min/mg
7 | CCc1nc2ncc(C)cn2c1C(=O)NCc1ccc(-c2cn3c(n2)CC(C)CC3)cc1 (stereo not drawn) [Compound 89] | 0.046 (≈ 0.0197 µg/mL) | 14100 | 1 | > 3 | < 7.7 | –
8 | CCc1nc2nc(C)ccn2c1C(=O)NCc1ccc(-c2cn3c(n2)CC(C)CC3)cc1 (stereo not drawn) [Compound 91] | 0.48 (≈ 0.206 µg/mL) | 191000 | 1 | > 3 | < 7.7 | –
9 | CCc1nc2ncc(C)cn2c1C(=O)NCc1ccc(-c2cc3n(n2)CCCC3)cc1 [Compound 95] | 0.011 (≈ 0.00456 µg/mL) | 3630 | 1 | 0.978 | 0.012 | half-life at 1 µM [4, 8]: > 9.33 h; microsomal CLint at 1 µM [4, 9]: < 1.2 µL/min/mg
10 | CCc1nc2ncc(C)cn2c1C(=O)NCc1ccc(-c2nc3n(n2)CCC(COC)C3)cc1 (stereo not drawn) [Compound 102] | 0.058 (≈ 0.0267 µg/mL) | 25700 | 1 | > 3 | < 7.7 | –
11 | CCc1nc2ncc(C)cn2c1C(=O)NCc1ccc(-c2nc3n(n2)CCC(C(C)(F)F)C3)c(F)c1 (stereo not drawn) [Compound 106] | 0.03 (≈ 0.0149 µg/mL) | 12000 | 1 | 1.92 | 12.1 | –
12 | CCc1nc2cc(F)ccn2c1C(=O)NCc1ccc(-c2nc3n(n2)CCCC3)cc1 [Compound 120] | 0.042 (≈ 0.0176 µg/mL) | 14500 | 1 | 1.61 | 14.4 | –
13 | CCc1nc2ncc(C)cn2c1C(=O)NCc1ccc(-c2nc3n(n2)CCC(C)(C)C3)cc1 [Compound 144] | 0.05 (≈ 0.0222 µg/mL) | 12600 | 1 | > 3 | < 7.7 | –
14 | CCc1cnc2nc(CC)c(C(=O)NCc3ccc(-c4cn5c(n4)C[C@H](C(F)(F)F)CC5)cc3)n2c1 [Compound 151] | 0.054 (≈ 0.0268 µg/mL) | 18200 | 1 | 0.37 | 62.5 | half-life at 1 µM [4, 8]: 0.0717 h; microsomal CLint at 1 µM [4, 9]: 326 µL/min/mg
15 | CCc1cnc2nc(CC)c(C(=O)NCc3ccc(-c4cn5c(n4)C[C@@H](C(F)(F)F)CC5)cc3)n2c1 [Compound 152] | 0.088 (≈ 0.0437 µg/mL) | 23400 | 1 | 0.178 | 129 | half-life at 1 µM [4, 8]: < 0.0667 h; microsomal CLint at 1 µM [4, 9]: > 347 µL/min/mg
16 | CCc1nc2n(c1C(=O)NCc1ccc(-c3cc4n(n3)CCC(C(F)(F)F)C4)cc1)CCCC2 (stereo not drawn) [Compound 179] | 0.0097 (≈ 0.00457 µg/mL) | 3310 | 1 | 0.432 | 53.5 | –
17 | CCc1nc2ncccn2c1C(=O)NCc1ccc(-c2nc3n(n2)CC[C@@H](C2CC2)C3)cc1 [Compound 183] | 0.48 (≈ 0.212 µg/mL) | 646000 | 1 | 2.28 | 10.1 | –
18 | CCc1nc2ncccn2c1C(=O)NCc1ccc(-c2nc3n(n2)CC[C@H](C2CC2)C3)cc1 [Compound 184] | 0.43 (≈ 0.19 µg/mL) | 166000 | 1 | > 3 | < 7.7 | –
19 | CCc1nc2ncc(NC(=O)OC(C)(C)C)cn2c1C(=O)NCc1ccc(-c2nc3n(n2)CCC(C(F)(F)F)C3)cc1 (stereo not drawn) [Compound 194] | – | – | – | – | – | Bacterial activity pMIC50 [2]: 7.43; MIC90 [2]: 0.1 µM (≈ 0.0585 µg/mL); Metabolic Stability (liver microsome intrinsic clearance) Clearance (human, μl/min./mg protein) ([4]; human liver microsomes): <7.7 μl/min./mg protein; Metabolic Stability Half life (human, min.) ([4]; human liver microsomes): >3 h; Metabolic Stability (liver microsome intrinsic clearance) Clearance (mouse, μl/min./mg protein) [4]: <7.7 μl/min./mg protein; Metabolic Stability Half life (mouse, min.) [4]: >3 h; GeneTox AmesIIb Score [3]: 1
20 | CCc1nc2nc(C)c(N(Cc3ccc(OC)cc3OC)C(=O)OC(C)(C)C)cn2c1C(=O)NCc1ccc(-c2nc3n(n2)CC[C@H](C(F)(F)F)C3)cc1 [Compound 196] | – | – | – | – | – | Bacterial activity pMIC50 [2]: 7.56; MIC90 [2]: 0.067 µM (≈ 0.0502 µg/mL); Metabolic Stability (liver microsome intrinsic clearance) Clearance (mouse, μl/min./mg protein) [4]: <7.7 μl/min./mg protein; Metabolic Stability Half life (mouse, min.) [4]: >3 h; GeneTox AmesIIb Score [3]: 1

Source: patent publication US20250034171A1, “IMIDAZOPYRIDINE AMIDES AND RELATED COMPOUNDS FOR USE IN THE TREATMENT OF BACTERIAL INFECTIONS” (priority 2021, published 2025)
